Experimental data published in patent publication US10308643B2, “Heterocyclic compound” (Takeda Pharmaceutical Company Limited, priority 2015, dated 2019).

Tests used:
Type in all cases: biochemical
HDAC6 enzyme = molecular target: T1, HDAC6 enzyme (Homo sapiens, UniProt Q9UBN7); experiment: HDAC1/6 Enzyme Inhibitory Assay (HDAC-Glo I/II Assay kit), HDAC6; conditions: 1 μM test compound, wells without enzyme = 100% inhibition; for inhibition at 1 µM: read-out: HDAC6 inhibitory rate (%) (1 μM)
T1 construct: transducing full length HDAC1 and HDAC6 genes into Sf-9 insect cells; GST; purchased SignalChem; host or cells: Sf-9 insect cells
T1 sequence (Q9UBN7 1-1215): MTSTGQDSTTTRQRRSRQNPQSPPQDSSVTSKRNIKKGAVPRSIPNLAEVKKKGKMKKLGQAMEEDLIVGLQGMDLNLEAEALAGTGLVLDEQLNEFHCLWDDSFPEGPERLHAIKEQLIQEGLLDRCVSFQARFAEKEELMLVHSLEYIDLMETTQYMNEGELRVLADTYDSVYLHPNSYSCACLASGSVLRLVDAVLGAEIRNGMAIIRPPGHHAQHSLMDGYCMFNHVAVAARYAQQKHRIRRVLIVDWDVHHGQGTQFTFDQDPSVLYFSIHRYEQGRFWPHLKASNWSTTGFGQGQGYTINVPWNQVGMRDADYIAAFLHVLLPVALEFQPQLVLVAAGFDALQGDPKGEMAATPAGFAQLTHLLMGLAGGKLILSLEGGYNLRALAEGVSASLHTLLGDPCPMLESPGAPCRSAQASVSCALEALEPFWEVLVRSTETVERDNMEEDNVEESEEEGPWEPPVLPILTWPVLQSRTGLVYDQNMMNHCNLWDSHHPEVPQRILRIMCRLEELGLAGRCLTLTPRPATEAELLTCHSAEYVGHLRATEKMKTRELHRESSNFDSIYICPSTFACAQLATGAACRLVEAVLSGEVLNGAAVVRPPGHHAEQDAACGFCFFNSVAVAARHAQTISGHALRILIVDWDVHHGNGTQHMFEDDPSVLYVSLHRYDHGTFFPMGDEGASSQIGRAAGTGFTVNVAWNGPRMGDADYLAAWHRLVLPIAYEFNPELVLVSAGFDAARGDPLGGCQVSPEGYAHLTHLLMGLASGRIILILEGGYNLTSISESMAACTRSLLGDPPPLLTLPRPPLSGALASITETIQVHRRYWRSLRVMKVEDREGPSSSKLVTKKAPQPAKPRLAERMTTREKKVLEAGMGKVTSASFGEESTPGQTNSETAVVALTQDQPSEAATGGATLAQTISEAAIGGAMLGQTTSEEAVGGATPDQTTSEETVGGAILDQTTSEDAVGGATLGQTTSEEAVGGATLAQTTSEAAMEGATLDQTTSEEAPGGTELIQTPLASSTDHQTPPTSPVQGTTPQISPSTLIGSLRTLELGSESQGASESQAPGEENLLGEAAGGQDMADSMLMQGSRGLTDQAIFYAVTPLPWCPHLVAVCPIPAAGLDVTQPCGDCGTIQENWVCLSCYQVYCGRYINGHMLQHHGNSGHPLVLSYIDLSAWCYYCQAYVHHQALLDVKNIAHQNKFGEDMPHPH
How it was run: (§1)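 Steps: compound in pH 7.5 Tris buffer plus enzyme (full-length HDAC1 or HDAC6 from Sf-9, GST-purified), 60 min at room temperature; add HDAC-Glo substrate-developer; react 20 min; read luminescence. Relative activity is calculated against enzyme-free wells taken as full inhibition.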

HDAC1 enzyme = molecular target: T2, HDAC1 enzyme (Homo sapiens, UniProt Q13547); experiment: HDAC1/6 Enzyme Inhibitory Assay (HDAC-Glo I/II Assay kit), HDAC1; conditions: 1 μM test compound, wells without enzyme = 100% inhibition; for inhibition at 1 µM: read-out: HDAC1 inhibitory rate (%) (1 μM)
T2 construct: transducing full length HDAC1 and HDAC6 genes into Sf-9 insect cells; GST; purchased SignalChem; host or cells: Sf-9 insect cells
How it was run: as §1

HDAC9 enzyme = molecular target: T3, HDAC9 enzyme (Homo sapiens, UniProt Q9UKV0); experiment: HDAC9 Enzyme Inhibitory Assay (HDAC-Glo class IIa); conditions: 1 μM test compound, wells without enzyme = 100% inhibition; for inhibition at 1 µM: read-out: HDAC9 inhibitory rate (%) (1 μM)
T3 construct: transducing full length HDAC9 gene into Sf-9 insect cells; made in house; host or cells: Sf-9 insect cells
How it was run: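 Luminescent HDAC-Glo class IIa readout after a 20 min room-temperature reaction; relative inhibition referenced to enzyme-free wells as 100%. Test compound first preincubated 60 min with Sf-9-expressed, Ni-NTA-purified full-length HDAC9 in pH 7.5 Tris buffer containing 135 mM NaCl, 0.6 mM glutathione and 0.01% Tween-20.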

T2 sequence (Q13547 whole entry): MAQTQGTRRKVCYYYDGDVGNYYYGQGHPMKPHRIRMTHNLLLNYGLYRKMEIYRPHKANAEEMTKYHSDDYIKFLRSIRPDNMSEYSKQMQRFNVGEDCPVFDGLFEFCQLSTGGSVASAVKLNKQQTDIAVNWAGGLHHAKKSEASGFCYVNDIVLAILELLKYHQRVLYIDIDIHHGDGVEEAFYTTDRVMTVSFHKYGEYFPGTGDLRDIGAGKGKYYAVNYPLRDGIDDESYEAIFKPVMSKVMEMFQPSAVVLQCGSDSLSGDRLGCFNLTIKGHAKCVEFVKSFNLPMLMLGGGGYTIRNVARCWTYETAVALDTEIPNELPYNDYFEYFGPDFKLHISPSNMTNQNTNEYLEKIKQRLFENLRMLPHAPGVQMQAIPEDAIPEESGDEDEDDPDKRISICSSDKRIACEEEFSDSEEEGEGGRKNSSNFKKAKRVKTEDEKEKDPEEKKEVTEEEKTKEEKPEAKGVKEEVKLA
T3 sequence (Q9UKV0 whole entry, species assumed): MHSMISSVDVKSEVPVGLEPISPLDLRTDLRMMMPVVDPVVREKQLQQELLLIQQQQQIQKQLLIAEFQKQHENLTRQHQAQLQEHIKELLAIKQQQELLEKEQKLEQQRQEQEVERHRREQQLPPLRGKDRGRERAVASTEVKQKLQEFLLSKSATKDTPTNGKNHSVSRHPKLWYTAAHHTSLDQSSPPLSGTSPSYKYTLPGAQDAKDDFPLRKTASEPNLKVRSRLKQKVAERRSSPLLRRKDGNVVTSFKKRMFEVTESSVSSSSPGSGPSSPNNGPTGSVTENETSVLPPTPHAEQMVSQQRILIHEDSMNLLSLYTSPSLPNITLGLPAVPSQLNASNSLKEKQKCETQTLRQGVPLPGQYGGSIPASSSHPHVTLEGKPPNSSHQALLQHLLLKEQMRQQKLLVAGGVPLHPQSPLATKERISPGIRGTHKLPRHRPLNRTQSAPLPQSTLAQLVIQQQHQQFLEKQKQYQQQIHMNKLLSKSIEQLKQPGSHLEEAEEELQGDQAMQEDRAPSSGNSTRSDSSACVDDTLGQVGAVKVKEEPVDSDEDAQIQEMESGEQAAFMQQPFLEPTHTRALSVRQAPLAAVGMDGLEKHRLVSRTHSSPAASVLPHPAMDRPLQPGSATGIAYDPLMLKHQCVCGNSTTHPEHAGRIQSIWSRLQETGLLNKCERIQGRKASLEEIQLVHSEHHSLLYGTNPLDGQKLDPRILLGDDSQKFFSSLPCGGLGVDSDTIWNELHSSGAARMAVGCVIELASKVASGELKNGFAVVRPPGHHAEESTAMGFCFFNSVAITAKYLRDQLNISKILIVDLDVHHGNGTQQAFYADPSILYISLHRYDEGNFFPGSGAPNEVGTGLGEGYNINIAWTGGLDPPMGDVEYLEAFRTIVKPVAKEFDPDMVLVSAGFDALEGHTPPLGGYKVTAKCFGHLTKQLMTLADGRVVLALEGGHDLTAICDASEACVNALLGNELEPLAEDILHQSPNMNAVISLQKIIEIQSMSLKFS

inhibition at 1 µM (HDAC6 enzyme) [%]	inhibition at 1 µM (HDAC1 enzyme) [%]	inhibition at 1 µM (HDAC9 enzyme) [%]	HDAC6 inhibitory rate (%) (1 μM) (HDAC6 enzyme)	HDAC1 inhibitory rate (%) (1 μM) (HDAC1 enzyme; 1 µM)	HDAC9 inhibitory rate (%) (1 μM) (HDAC9 enzyme; 1 µM)	SMILES
89	3	40				O=C(CN1CCCC1=O)N[C@@H]1CCCC[C@H]1N1Cc2ccc(-c3noc(C(F)(F)F)n3)cc2C1=O [Example 121, 2-(2-oxopyrrolidin-1-yl)-N-((1R,2R)-2-(1-oxo-6-(5-(trifluoromethyl)-1,2,4-oxadiazol-3-yl)-1,3-dihydro-2H-isoindol-2-yl)cyclohexyl)acetamide]
77	19	81				CC(=O)N1CC[C@@H](c2ccccc2)[C@H](N2Cc3cc(-c4noc(C(F)(F)F)n4)ccc3C2=O)C1 (relative stereo) [Example 73, trans-2-(1-acetyl-4-phenylpiperidin-3-yl)-5-(5-(trifluoromethyl)-1,2,4-oxadiazol-3-yl)isoindolin-1-one]
100	6	52				O=C1c2cc(-c3noc(C(F)(F)F)n3)ccc2CN1[C@@H]1CCCC[C@H]1NC(=O)C1(CO)CC1 [Example 153, 1-(hydroxymethyl)-N-((1R,2R)-2-(1-oxo-6-(5-(trifluoromethyl)-1,2,4-oxadiazol-3-yl)-1,3-dihydro-2H-isoindol-2-yl)cyclohexyl) cyclopropanecarboxamide]
96	87	98				O=C1c2cc(-c3noc(C(F)(F)F)n3)ccc2CN1[C@@H]1CNC[C@H]1c1ccccc1 (relative stereo) [Example 3, trans-2-(4-phenylpyrrolidin-3-yl)-6-(5-(trifluoromethyl)-1,2,4-oxadiazol-3-yl)isoindolin-1-one]
99	2	23				O=C(N[C@@H]1CCCC[C@H]1N1Cc2ccc(-c3noc(C(F)(F)F)n3)cc2C1=O)N1CC2CCC(C1)O2 [Example 146, N-((1R,2R)-2-(1-oxo-6-(5-(trifluoromethyl)-1,2,4-oxadiazol-3-yl)-1,3-dihydro-2H-isoindol-2-yl)cyclohexyl)-8-oxa-3-azabicyclo[3.2.1]octane-3-carboxamide]
95	26	66				CC(C)(C)OC(=O)N[C@@H]1CCCC[C@@H]1N1Cc2ccc(-c3noc(C(F)(F)F)n3)cc2C1=O (relative stereo) [Example 198, tert-butyl (cis-2-(1-oxo-6-(5-(trifluoromethyl)-1,2,4-oxadiazol-3-yl)-1,3-dihydro-2H-isoindol-2-yl)cyclohexyl)carbamate]
98	49	87				O=C1c2cc(-c3noc(C(F)(F)F)n3)ccc2CN1[C@H]1CCNC[C@H]1c1ccccc1 [Example 16, 2-((3R,4S)-3-phenylpiperidin-4-yl)-6-(5-(trifluoromethyl)-1,2,4-oxadiazol-3-yl)isoindolin-1-one]
97	0	32				O=C1c2cc(-c3noc(C(F)(F)F)n3)ccc2CN1[C@@H]1CCCC[C@H]1NC(=O)C1(CO)CCOCC1 [Example 113, 4-(hydroxymethyl)-N-((1R,2R)-2-(1-oxo-6-(5-(trifluoromethyl)-1,2,4-oxadiazol-3-yl)-1,3-dihydro-2H-isoindol-2-yl)cyclohexyl)tetrahydro-2H-pyran-4-carboxamide]
102	18	85				O=C(N[C@@H]1CCCC[C@H]1N1Cc2ncc(-c3noc(C(F)(F)F)n3)cc2C1=O)C1CC1 [Example 84, N-((1R,2R)-2-(5-oxo-3-(5-(trifluoromethyl)-1,2,4-oxadiazol-3-yl)-5,7-dihydro-6H-pyrrolo[3,4-b]pyridin-6-yl)cyclohexyl) cyclopropanecarboxamide]
99	9	29				O=C(N[C@@H]1CCCC[C@H]1N1Cc2ccc(-c3noc(C(F)(F)F)n3)cc2C1=O)N1CC(F)C1 [Example 187, 3-fluoro-N-((1R,2R)-2-(1-oxo-6-(5-(trifluoromethyl)-1,2,4-oxadiazol-3-yl)-1,3-dihydro-2H-isoindol-2-yl)cyclohexyl)azetidine-1-carboxamide]
78	17	88				O=C1c2ccc(-c3noc(C(F)(F)F)n3)cc2CN1[C@H]1CCNC[C@H]1c1ccccc1 (relative stereo) [Example 79, cis-2-(3-phenylpiperidin-4-yl)-5-(5-(trifluoromethyl)-1,2,4-oxadiazol-3-yl)isoindolin-1-one]
98	93	99				Cc1cc(F)ccc1[C@@H]1CNCC[C@H]1N1Cc2ccc(-c3noc(C(F)(F)F)n3)cc2C1=O (relative stereo) [Example 50, 2-(trans-3-(4-fluoro-2-methylphenyl)piperidin-4-yl)-6-(5-(trifluoromethyl)-1,2,4-oxadiazol-3-yl)isoindolin-1-one]
39	27	41				CC(C)(C)OC(=O)N[C@@H]1CCC[C@H]1N1Cc2ccc(-c3noc(C(F)(F)F)n3)cc2C1=O [Example 140, tert-butyl ((1R,2R)-2-(1-oxo-6-(5-(trifluoromethyl)-1,2,4-oxadiazol-3-yl)-1,3-dihydro-2H-isoindol-2-yl)cyclopentyl)carbamate]
99	90	98				Cc1ccc([C@@H]2CNCC[C@H]2N2Cc3ccc(-c4noc(C(F)(F)F)n4)cc3C2=O)cc1F (relative stereo) [Example 48, 2-(trans-3-(3-fluoro-4-methylphenyl)piperidin-4-yl)-6-(5-(trifluoromethyl)-1,2,4-oxadiazol-3-yl)isoindolin-1-one]
97	6	67				N#CC1(C(=O)N[C@@H]2CCCC[C@H]2N2Cc3ccc(-c4noc(C(F)(F)F)n4)cc3C2=O)CC1 [Example 122, 1-cyano-N-((1R,2R)-2-(1-oxo-6-(5-(trifluoromethyl)-1,2,4-oxadiazol-3-yl)-1,3-dihydro-2H-isoindol-2-yl)cyclohexyl) cyclopropanecarboxamide]
89	3	78				N[C@@H]1CCCC[C@H]1N1Cc2ccc(-c3noc(C(F)(F)F)n3)cc2C1=O [Example 28, 2-((1R,2R)-2-aminocyclohexyl)-6-[5-(trifluoromethyl)-1,2,4-oxadiazol-3-yl)isoindolin-1-one]
100	9	73				CC(C)(C#N)C(=O)N[C@@H]1CCCC[C@H]1N1Cc2ccc(-c3noc(C(F)(F)F)n3)cc2C1=O [Example 100, 2-cyano-2-methyl-N-((1R,2R)-2-(1-oxo-6-(5-(trifluoromethyl)-1,2,4-oxadiazol-3-yl)-1,3-dihydro-2H-isoindol-2-yl)cyclohexyl)propanamide]
			99	50	91	O=C1c2cc(-c3noc(C(F)(F)F)n3)ccc2CN1[C@@H]1CCOC[C@H]1c1ccccc1 (relative stereo) [Example 35, trans-2-(3-phenyltetrahydro-2H-pyran-4-yl)-6-(5-(trifluoromethyl)-1,2,4-oxadiazol-3-yl)isoindolin-1-one]
